Structures can show the parent of a compound that is named as a salt.
How the values were obtained:
[1] = in vivo; conditions: mouse, iv
Protocol: With respect to acute toxicity of the isocarbostyril derivatives of the general formula (I), experiments were carried out to obtain the LD50 values of the compounds.

[2] = molecular target: T1, isolated guinea-pig atria (β1) (Cavia porcellus, UniProt H0W3H1); assay: β-adrenergic blocking effect: antagonism of isoproterenol stimulation in isolated guinea-pig atria
T1 construct: isolated guinea-pig atria; from tissue; host or cells: isolated guinea-pig atria

[3] = molecular target: T2, isolated guinea-pig tracheas (β2) (Cavia porcellus, UniProt Q8K4Z4); assay: β-adrenergic blocking effect: antagonism of isoproterenol stimulation in isolated guinea-pig tracheas
T2 construct: isolated guinea-pig tracheas; from tissue; host or cells: isolated guinea-pig tracheas

[4] = tested on: reserpine-treated anaesthetized rats; assay: Intrinsic heart stimulating effect in reserpine-treated anaesthetized rats; type: in vivo, rat
Protocol: Intrinsic heart stimulating effects of the compounds of the invention were also determined using reserpine-treated anaesthetized rats.

T1 sequence (H0W3H1 1-470): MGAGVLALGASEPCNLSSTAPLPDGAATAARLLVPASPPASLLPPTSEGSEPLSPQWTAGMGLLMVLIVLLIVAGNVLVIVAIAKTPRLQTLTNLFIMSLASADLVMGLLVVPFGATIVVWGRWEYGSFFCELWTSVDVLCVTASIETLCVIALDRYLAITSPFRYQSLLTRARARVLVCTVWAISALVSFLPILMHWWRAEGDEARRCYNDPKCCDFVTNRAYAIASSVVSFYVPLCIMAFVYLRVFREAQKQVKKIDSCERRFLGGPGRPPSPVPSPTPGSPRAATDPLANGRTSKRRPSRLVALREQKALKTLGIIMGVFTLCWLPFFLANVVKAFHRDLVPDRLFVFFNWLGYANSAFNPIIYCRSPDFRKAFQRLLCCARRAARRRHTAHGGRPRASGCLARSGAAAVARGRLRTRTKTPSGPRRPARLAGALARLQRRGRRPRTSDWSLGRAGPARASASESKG
T2 sequence (Q8K4Z4 whole entry): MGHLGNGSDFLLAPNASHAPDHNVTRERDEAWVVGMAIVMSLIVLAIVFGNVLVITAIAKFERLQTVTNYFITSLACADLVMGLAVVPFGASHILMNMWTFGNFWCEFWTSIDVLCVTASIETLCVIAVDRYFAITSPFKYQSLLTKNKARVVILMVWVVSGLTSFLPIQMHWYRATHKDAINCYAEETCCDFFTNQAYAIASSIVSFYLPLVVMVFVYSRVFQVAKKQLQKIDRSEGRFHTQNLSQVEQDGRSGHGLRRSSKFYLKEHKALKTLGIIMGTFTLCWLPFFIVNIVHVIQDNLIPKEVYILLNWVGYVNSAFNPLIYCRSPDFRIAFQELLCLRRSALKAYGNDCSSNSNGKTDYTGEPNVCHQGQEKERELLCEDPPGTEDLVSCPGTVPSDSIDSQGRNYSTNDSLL

Row | SMILES | LD50 [1] [mg/kg] | β-adrenergic blocking activity (Relative potency) atria (β1) [2] | β-adrenergic blocking activity (Relative potency) trachea (β2) [3] | Intrinsic heart stimulation [4]
1 | Cn1cc(OCC(O)CNCc2ccccc2)c2ccccc2c1=O (stereo not drawn) [Example 7, 4-(3-benzylamino-2-hydroxy)propoxy-2-methylisocarbostyril hydrochloride] | 120 | – | – | –
2 | CC(C)NCC(O)COc1cn(C)c(=O)c2ccccc12 (stereo not drawn) [Example 1, 4-(3-isopropylamino-2-hydroxy)propoxy-2-methylisocarbostyrilhydrochloride] | 105 | 3.2 | 0.44 | 0
3 | CC(C)[N+](C)(C)CC(O)COc1cn(C)c(=O)c2ccccc12 (stereo not drawn) [Example 14] | < 20 | – | – | –
4 | CCCCNCC(O)COc1cn(C)c(=O)c2ccccc12 (stereo not drawn) [R3=H, R4=n-C4 H9] | 105 | – | – | –
5 | Cn1cc(OCC(O)CNC(C)(C)C)c2ccccc2c1=O (stereo not drawn) [Example 2, 4-(3-tert.-butylamino-2-hydroxy)propoxy-2-methylisocarbostyril hydrochloride] | 119 | 2.5 | 0.52 | 0
6 | CCCCCCNCC(O)COc1cn(C)c(=O)c2ccccc12 (stereo not drawn) [R3=H, R4=n-C6 H13] | 69 | – | – | –
7 | CN1CCN(CC(O)COc2cn(C)c(=O)c3ccccc23)CC1 (stereo not drawn) [Example 12, 4-(3-N-methylpiperazino-2-hydroxy) propoxy-2-methyl isocarbostyril] | 270 | – | – | –
8 | CC[N+](C)(CC)CC(O)COc1cn(C)c(=O)c2ccccc12 (stereo not drawn) [Example 13, 4-(3-diethylamino-2-hydroxy)propoxy-2-methyl isocarbostyril methoiodide] | 15.2 | – | – | –
9 | CC(C)NCC(O)COc1cccc2ccccc12 (stereo not drawn) [Propranolol, propranolol, reference compound] | – | – | – | 0
10 | Cn1cc(OCC(O)CN2CCCCC2)c2ccccc2c1=O (stereo not drawn) [Example 9, 4-(3-piperidino-2-hydroxy)propoxy-2-methylisocarbostyril hydrochloride] | 200 | – | – | –
11 | CCCCN(C)CC(O)COc1cn(C)c(=O)c2ccccc12 (stereo not drawn) [Example 11, 4-(3-N-methyl-butylamino-2-hydroxy) propoxy-2-methyl isocarbostyril] | 143 | – | – | –
12 | Cn1cc(OCC(O)CNC2CCCCC2)c2ccccc2c1=O (stereo not drawn) [Example 8, 4-(3-cyclohexylamino-2-hydroxy)propoxy-2-methylisocarbostyril hydrochlorid] | 80 | – | – | –
13 | CCC(C)NCC(O)COc1cn(C)c(=O)c2ccccc12 (stereo not drawn) [Example 3, 4-(3-sec.-butylamino-2-hydroxy)propoxy-2-methyl isocarbostyril hydrochloride] | 120 | 4.5 | 0.05 | 0
14 | CC[N+](C)(C)CC(O)COc1cn(C)c(=O)c2ccccc12 (stereo not drawn) [Example 15, 4-(3-dimethylamino-2-hydroxy)propoxy-2-methyl isocarbostyril ethoiodide] | 16.7 | – | – | –
15 | CCCNCC(O)COc1cn(C)c(=O)c2ccccc12 (stereo not drawn) [R3=H, R4=n-C3 H7] | 115 | – | – | –

From patent US4129565A, “Isocarbostyril derivatives” (priority 1975, dated 1978)
